Measured values taken from US12478634B2, “Compositions and methods for treating muscular dystrophy and other disorders” (The Charlotte Mecklenburg Hospital Authority, priority 2016, dated 2025).

Key:
epithelial cells [1] = assay: IIH6 membrane staining of glycosylated α-DG in treated epithelial cells; format: cell-based; details: 3 days culture with agent, vs control
Procedure: The white lines represent the membrane staining with the antibody. […] Cells are grown in culture medium and active reagents were added one day later and culture for further 3 days with the described concentration. The cells were then washed, fixed and stained with IIH6 antibody for the expression of glycosylated a-DG. The positive signals present as membrane staining (white lines and circles here) which are only detected in the majority of the treated samples, but hardly seen in the control.

MCF-7 cells = assay: FACS for expression of glycosylated alpha-DG after ribitol treatment; format: cell-based; details: MCF-7, 10 mM ribitol for 3 days; untreated controls 45%
Procedure: FIG. 1. Fluorescence-activated cell sorting (FACS) for the enhanced expression of glycosylated alpha-DG after ribitol treatment. The breast cancer cell line MCF-7 was seeded in T25 culture flasks and cultured to 75% confluence in DMEM 10% FBS, and then treated with 10 mM ribitol in the same growth medium for 3 days. The cells were then collected by gentle scrapping and washed twice with PBS. The cells were resuspended in 100 microliter PBS and stained with monoclonal antibody IIH6 (Millipore EMD, 1:100 dilution) for 40 minutes and detected with secondary Alexa 594-labeled goat anti-mouse IgM (Invitrogen). The stained cells were washed and then FACS analyzed for the percentage of positive cells and the signal intensity (Alexa594.007). […]
Fluorescence-activated cell sorting (FACS) was used to show enhanced expression of glycosylated alpha-DG after ribitol treatment. […] The cells were resuspended in 100 microliter PBS and stained with monoclonal antibody IIH6 (Millipore EMD, 1:100 dilution) for 40 minutes and detected with secondary Alexa 594-labeled goat anti-mouse IgM (Invitrogen). The stained cells were washed and then FACS analyzed for the percentage of positive cells and the signal intensity (Alexa594.007). […]

[2] = tested on: FKRP and LARGE transcripts; assay: Quantitative real-time PCR of FKRP and LARGE transcripts; format: in vivo, mouse; details: cardiac muscle, limb muscle and diaphragm
Procedure: Quantitative reverse transcriptase PCR assay. Tissues were collected from heart, diaphragm and tibialis anterior. RNA was extracted using TRIzol (Invitrogen) following the supplied protocol. Final RNA pellet was re-suspended in 20 μl RNAse-nuclease free water. Final RNA concentration was determined using Nanodrop 2000c. One […] of RNA was subsequently converted to cDNA using the High-Capacity RNA-to-cDNA™ Kit (Applied Biosystems) following the supplied protocol. cDNA was then used for quantitative real-time PCR using the mouse FKRP-FAM (Mm00557870 ml) and LARGE-FAM (Mm00521885_ml) taqman assay with primer limited GAPDH-VIC (Mm99999915_g1) as the internal control and TaqMan® Universal Master Mix II, with UNG (Life Technologies). […] Results of FKRP and LARGE transcript were calculated and expressed as 2^−ΔΔCt and compared across tissues and animals.

epithelial cells [3] = assay: IIH6 blot of glycosylated α-DG from treated epithelial cells; format: cell-based; details: 3 days culture with agent
Procedure: Lane 1, control untreated cells; Lane 4, cells treated with ribulose-5-phosphate; Lane 5, cells treated with glucose. […] Cells are grown in culture medium and active reagents were added one day later and culture for further 3 days with the active agent. The cells were then collected, homogenized, blotted onto membrane and detected with 1H6 antibody for the expression of glycosylated a-DG. The black large spot represents the expression of the glycosylated a-DG, with higher intensity indicating higher levels.

| SMILES | glycosylated α-DG membrane staining (IIH6) (epithelial cells [1]) | positive cells for glycosylated alpha-DG (IIH6 antibody) (MCF-7 cells) [%] | FKRP and LARGE transcript levels, treated vs untreated [2] | functionally glycosylated alpha-DG on blot (epithelial cells [3]) |
| --- | --- | --- | --- | --- |
| Nc1ccn([C@@H]2O[C@H](COP(=O)(O)OP(=O)(O)OC[C@@H](O)[C@@H](O)[C@@H](O)CO)[C@@H](O)[C@H]2O)c(=O)n1 [CDP-ribitol] | positive signals are identified in the majority of the cells | – | – | – |
| OC[C@@H](O)[C@@H](O)[C@@H](O)CO [ribitol] | positive signals are identified in the majority of the cells | 82 | No statistically significant difference | observed visually |
| O=C(CO)[C@H](O)[C@H](O)COP(=O)(O)O [ribulose-5-phosphate, reference compound] | – | – | – | barely detectable |
| O=C(CO)[C@H](O)[C@H](O)CO [ribulose] | positive signals are identified in the majority of the cells | – | – | observed visually |
